Measured values: BindingDB's records for doi:10.1021/acs.jmedchem.0c00766 (Istituto Italiano Di Tecnologia, 2020)

Target: Serine-protein kinase ATM (Homo sapiens, UniProt Q13315)
Experiment: Inhibition of ATM (unknown origin) assessed as ATM-dependent phosphorylation using GST-p53 ser15 as substrate

Chain of Serine-protein kinase ATM (Q13315 whole entry): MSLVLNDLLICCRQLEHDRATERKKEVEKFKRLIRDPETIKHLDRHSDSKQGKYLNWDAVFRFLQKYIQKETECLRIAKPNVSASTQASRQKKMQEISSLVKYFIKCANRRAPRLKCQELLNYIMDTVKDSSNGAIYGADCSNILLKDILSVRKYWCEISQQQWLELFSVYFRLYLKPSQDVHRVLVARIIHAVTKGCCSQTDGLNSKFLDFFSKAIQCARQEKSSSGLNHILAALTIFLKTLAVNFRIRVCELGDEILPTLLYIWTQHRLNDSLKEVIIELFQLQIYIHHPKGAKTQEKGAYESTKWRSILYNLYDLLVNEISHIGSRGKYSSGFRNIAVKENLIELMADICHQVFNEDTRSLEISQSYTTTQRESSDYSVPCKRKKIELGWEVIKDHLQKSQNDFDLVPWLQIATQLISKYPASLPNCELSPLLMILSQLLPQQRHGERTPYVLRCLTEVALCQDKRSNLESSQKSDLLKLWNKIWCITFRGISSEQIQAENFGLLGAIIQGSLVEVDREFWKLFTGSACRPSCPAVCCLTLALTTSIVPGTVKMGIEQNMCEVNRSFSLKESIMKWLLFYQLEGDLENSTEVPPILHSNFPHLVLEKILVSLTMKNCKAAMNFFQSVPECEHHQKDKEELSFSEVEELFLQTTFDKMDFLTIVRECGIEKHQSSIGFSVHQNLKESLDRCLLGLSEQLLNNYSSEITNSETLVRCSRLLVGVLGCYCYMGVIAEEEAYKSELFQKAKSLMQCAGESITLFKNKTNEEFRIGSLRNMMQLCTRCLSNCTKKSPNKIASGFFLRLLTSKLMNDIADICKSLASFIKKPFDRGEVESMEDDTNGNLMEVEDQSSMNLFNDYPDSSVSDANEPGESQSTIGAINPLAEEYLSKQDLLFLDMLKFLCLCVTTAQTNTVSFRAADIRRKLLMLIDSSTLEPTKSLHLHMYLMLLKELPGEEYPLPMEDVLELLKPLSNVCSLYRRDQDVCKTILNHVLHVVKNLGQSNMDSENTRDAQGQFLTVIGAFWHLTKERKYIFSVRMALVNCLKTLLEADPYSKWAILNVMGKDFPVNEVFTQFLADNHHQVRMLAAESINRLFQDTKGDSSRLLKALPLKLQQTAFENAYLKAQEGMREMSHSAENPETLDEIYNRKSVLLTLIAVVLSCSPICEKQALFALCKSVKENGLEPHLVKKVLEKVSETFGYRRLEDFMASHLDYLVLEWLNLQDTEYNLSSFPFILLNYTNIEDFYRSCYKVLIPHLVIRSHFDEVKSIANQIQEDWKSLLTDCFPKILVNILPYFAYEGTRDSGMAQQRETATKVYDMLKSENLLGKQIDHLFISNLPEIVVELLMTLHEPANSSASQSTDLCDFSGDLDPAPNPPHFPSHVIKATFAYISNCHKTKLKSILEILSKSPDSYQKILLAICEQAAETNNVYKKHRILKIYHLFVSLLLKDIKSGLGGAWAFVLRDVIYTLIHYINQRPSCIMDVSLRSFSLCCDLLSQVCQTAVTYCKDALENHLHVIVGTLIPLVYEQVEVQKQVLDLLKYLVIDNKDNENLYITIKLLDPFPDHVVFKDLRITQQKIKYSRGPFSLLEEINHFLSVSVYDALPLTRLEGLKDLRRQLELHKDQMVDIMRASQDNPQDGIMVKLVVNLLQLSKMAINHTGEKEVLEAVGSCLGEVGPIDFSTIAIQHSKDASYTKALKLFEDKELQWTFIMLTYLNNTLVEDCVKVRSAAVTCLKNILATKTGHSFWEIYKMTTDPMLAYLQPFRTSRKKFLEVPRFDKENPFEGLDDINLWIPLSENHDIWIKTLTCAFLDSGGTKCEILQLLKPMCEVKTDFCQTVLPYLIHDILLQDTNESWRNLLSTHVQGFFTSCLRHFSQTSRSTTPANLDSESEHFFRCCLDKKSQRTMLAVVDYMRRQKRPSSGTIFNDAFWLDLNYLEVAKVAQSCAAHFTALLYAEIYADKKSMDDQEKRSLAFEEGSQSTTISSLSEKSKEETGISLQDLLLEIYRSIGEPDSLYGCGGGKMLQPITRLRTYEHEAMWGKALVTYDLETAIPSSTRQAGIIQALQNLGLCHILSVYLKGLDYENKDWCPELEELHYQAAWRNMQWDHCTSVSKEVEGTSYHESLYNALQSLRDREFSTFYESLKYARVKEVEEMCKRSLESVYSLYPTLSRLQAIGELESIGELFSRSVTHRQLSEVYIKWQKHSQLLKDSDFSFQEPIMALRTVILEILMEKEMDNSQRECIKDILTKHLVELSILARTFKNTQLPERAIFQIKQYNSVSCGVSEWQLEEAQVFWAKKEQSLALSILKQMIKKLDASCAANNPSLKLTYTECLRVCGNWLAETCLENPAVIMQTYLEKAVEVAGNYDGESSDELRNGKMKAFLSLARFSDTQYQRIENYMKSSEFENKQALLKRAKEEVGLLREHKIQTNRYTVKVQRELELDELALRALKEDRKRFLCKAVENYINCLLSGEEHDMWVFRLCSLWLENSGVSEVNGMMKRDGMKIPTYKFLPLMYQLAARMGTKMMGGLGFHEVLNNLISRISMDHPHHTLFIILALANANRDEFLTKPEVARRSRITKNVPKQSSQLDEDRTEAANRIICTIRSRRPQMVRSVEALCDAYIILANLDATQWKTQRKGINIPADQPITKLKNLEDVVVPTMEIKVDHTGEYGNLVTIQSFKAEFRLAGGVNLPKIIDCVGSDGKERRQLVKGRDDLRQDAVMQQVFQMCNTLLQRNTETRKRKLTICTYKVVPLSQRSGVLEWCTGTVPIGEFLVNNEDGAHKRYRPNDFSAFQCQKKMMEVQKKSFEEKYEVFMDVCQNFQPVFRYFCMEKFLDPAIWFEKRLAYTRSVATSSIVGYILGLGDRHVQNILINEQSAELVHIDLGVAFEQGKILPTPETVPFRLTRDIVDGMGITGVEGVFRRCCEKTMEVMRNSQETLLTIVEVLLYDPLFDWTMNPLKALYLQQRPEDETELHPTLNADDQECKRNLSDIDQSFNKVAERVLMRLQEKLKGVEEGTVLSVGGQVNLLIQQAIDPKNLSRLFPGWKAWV

CC(C)n1c(=O)n(C)c2cnc3cc(F)c(-c4ccc(OCCCN5CCCCC5)nc4)cc3c21 [Azd-1390]
IC50: 0.09 nM
